Data from patent publication US4616003A, “N^6 -dihydroxypropyladenosines” (Warner-Lambert Company, priority 1985, dated 1986).
Like-named read-outs stand apart in the source and are kept apart here.

How the values were obtained:
[1] = tested on: Swiss-Webster male mice; assay: Mouse Activity and Screen Test (MAST): screen test failure; format: in vivo; settings: 1 hour prior to testing
Method: Nine unfasted Swiss-Webster male mice weighing 20-30 g are equally divided into three groups for each drug dose to be tested. That is, data for each dose level was generated by three separate groups of three mice each. A minimum of three dose levels (10, 30, and 100 mg/kg) are tested for each drug. Treatments are administered intraperitoneally one hour prior to testing. All dosages are calculated as parent compound and given in volumes of 10 ml/kg. Compounds are dissolved or suspended in 0.2% Methocel. Control animals are injected with Methocel. Testing: A two part testing procedure is started one hour postinjection. First, the screen test (ST) is performed (see Pharmac. Biochem. Behav. 6, 351-353, 1977). Briefly this test consists of placing mice on individual wire screens which are then rotated 180 degrees at the start of a 60 second observation period. The number of mice falling off the inverted screen is recorded. Data: The data obtained from the screen test are expressed as percent of mice falling off the screen. Data derived from locomotor activity of drug treated mice are compared to the activity of vehicle treated animals and are expressed as percent inhibition of spontaneous locomotion. All percentages reported for inhibition of locomotion (LI) are based upon data accumulated for one hour. Both phases of testing are graded: A=60-100%; C=31-59%; and N=0-30%. An overall dose rating is obtained by the following criteria: […]

[2] = target: T1, adenosine A2 receptor (Rattus norvegicus, UniProt P30543); assay: Adenosine A2 receptor binding (RBA-2), displacement of [3H]NECA
T1 construct: Brains were thawed and then kept on ice while the striata were dissected out; tissue Pel-Freez (Rogers, Ark.); host or cells: rat striatum (Sprague-Dawley brains; Long-Evans gave essentially identical results)
Method: Brains from 200-500 g mixed sex Sprague-Dawley rats were purchased from Pel-Freez (Rogers, Ark.). […] Brains were thawed and then kept on ice while the striata were dissected out. […] The suspension was centrifuged at 50,000 xg for ten minutes, the supernatant discarded, the pellet resuspended in 10 vol ice-cold Tris as above, recentrifuged, resuspended at 1 g/5 ml, and stored in plastic vials at -70° C. […] When needed, tissue was thawed at room temperature, disrupted in a Polytron, and kept on ice until used.
All incubations were for 60 minutes at 25° C. in 12×75 mm glass tubes containing 1 ml Tris with 5 mg original tissue weight of rat weight of rat striatal membranes, 4 nM [^3 H]-N-ethyl adenosine-5'-carboxamide ([^3 H]NECA), 50 nM N^6 -cyclopentyladenosine (to eliminate A1 receptor binding), 10 mM MgCl2, 0.1 units/ml of adenosine deaminase and 1% dimethylsulfoxide. N^6 -Cyclopentyladenosine was dissolved at 10 mM in 0.02N HCl and diluted in Tris. […] Test compounds were dissolved at 10 mM in dimethylsulfoxide on the same day as the experiment, and diluted in dimethylsulfoxide to 100× the final incubation concentration. […] [^3 H]NECA was diluted to 40 nM in Tris. The membrane suspension (5 mg/0.79 ml) contained sufficient MgCl2 and adenosine deaminase to give 10 mM and 0.1 units/ml, respectively, final concentration in the incubation. […] After all additions, the rack of tubes was vortexed, and the tubes were then incubated for 60 min at 25° C. in a shaking water bath. The rack of tubes was vortexed an additional time halfway through the incubation.
Incubations were terminated by filtration through 2.4 cm GF/B filters under reduced pressure. Each tube was filtered as follows: the contents of the tube were poured onto the filter, 4 ml of ice-cold Tris were added to the tube and the contents poured onto the filter, and the filter was washed twice with 4 ml of ice-cold Tris. The filtration was complete in about twelve seconds.
Nonspecific binding was defined as binding in the presence of 100 μM N^6 -cyclopentyladenosine, and specific binding was defined as total binding minus nonspecific binding. The IC50 was calculated by weighted nonlinear least squares curve-fitting to the mass-action equation. [formula] where Y is cpm bound
T is cpm total binding without drug
S is cpm specific binding without drug
D is the concentration of drug and
K is the IC50 of the drug
Weighting factors were calculated under the assumption that the standard deviation was proportional to the predicted value of Y. Nonspecific binding was treated as a very large (infinite) concentration of drug in the computer analysis.

[3] = tested on: Swiss-Webster male mice; assay: Mouse Activity and Screen Test (MAST): inhibition of spontaneous locomotor activity; format: in vivo; settings: 1 hour prior to testing
Method: Nine unfasted Swiss-Webster male mice weighing 20-30 g are equally divided into three groups for each drug dose to be tested. That is, data for each dose level was generated by three separate groups of three mice each. A minimum of three dose levels (10, 30, and 100 mg/kg) are tested for each drug. Treatments are administered intraperitoneally one hour prior to testing. All dosages are calculated as parent compound and given in volumes of 10 ml/kg. Compounds are dissolved or suspended in 0.2% Methocel. Control animals are injected with Methocel. Immediately following the screen test, the final phase of testing is initiated by placing each group of three mice in one actophotometer (Life Sciences, 22, 1067-1076, 1978). The actophotometer consists of a cylindrical chamber whose center is occupied by another cylinder which contains the illumination for six photocells located on the perimeter of the chamber. Six light-beam interruptions equal one count. Locomotor activity is recorded by computer at ten minute intervals for 60 minutes. Data: The data obtained from the screen test are expressed as percent of mice falling off the screen. Data derived from locomotor activity of drug treated mice are compared to the activity of vehicle treated animals and are expressed as percent inhibition of spontaneous locomotion. All percentages reported for inhibition of locomotion (LI) are based upon data accumulated for one hour. Both phases of testing are graded: A=60-100%; C=31-59%; and N=0-30%. An overall dose rating is obtained by the following criteria: […]

[4] = 4 nM [3H]NECA, 50 nM N6-cyclopentyladenosine, rat striatal membranes, read-out: RBA-2 (IC50, adenosine A2 receptor affinity)

T1 sequence (P30543 whole entry): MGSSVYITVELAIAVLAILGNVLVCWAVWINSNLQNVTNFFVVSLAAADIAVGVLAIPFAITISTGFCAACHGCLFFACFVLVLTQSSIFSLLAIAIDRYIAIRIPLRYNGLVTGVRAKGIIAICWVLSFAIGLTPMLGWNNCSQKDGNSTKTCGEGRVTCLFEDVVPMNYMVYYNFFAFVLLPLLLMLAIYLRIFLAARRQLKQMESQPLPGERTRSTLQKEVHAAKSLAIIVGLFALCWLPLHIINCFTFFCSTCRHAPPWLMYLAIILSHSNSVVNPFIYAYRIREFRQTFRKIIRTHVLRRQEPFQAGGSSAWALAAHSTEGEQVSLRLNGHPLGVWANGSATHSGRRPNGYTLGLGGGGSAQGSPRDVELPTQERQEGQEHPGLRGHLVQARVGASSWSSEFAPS

Compound | Screen Test Failure ([1]; 0.3 mg/kg i.p.) [%] | Screen Test Failure ([1]; 1.0 mg/kg i.p.) [%] | Screen Test Failure ([1]; 3.0 mg/kg i.p.) [%] | Screen Test Failure ([1]; 10 mg/kg i.p.) [%] | Screen Test Failure ([1]; 30 mg/kg i.p.) [%] | IC50 [2, 4] [µM] | Inhibition of Mouse Locomotor Activity ([3]; 0.3 mg/kg i.p.) [%] | Inhibition of Mouse Locomotor Activity ([3]; 1.0 mg/kg i.p.) [%] | Inhibition of Mouse Locomotor Activity ([3]; 3.0 mg/kg i.p.) [%] | Inhibition of Mouse Locomotor Activity ([3]; 10 mg/kg i.p.) [%] | Inhibition of Mouse Locomotor Activity ([3]; 30 mg/kg i.p.) [%] | Screen Test Failure ([1]; 0.1 mg/kg i.p.) [%] | Screen Test Failure ([1]; 100 mg/kg i.p.) [%] | Inhibition of Mouse Locomotor Activity ([3]; 0.1 mg/kg i.p.) [%] | Inhibition of Mouse Locomotor Activity ([3]; 100 mg/kg i.p.) [%] | Screen Test Failure ([1]; 0.03 mg/kg i.p.) [%] | IC50 [2] [µM] | Inhibition of Mouse Locomotor Activity ([3]; 0.03 mg/kg i.p.) [%]
CC1(C)OC[C@@H](CNc2ncnc3c2ncn3[C@@H]2O[C@H](CO)[C@@H](O)[C@H]2O)O1 [Example 5, (R)-N^6-[2,3-Dihydroxypropylisopropylidene]-adenosine] | 0 | 11 | 11 | 77 | 100 | 15 | 40 | 39 | 69 | 48 | 98 | – | – | – | – | – | – | –
OCC(O)CNc1ncnc2c1ncn2[C@@H]1O[C@H](CO)[C@@H](O)[C@@H]1O (stereo partly drawn) [Example 1, (R,S)-N^6 [2,3-Dihydroxypropyl]adenosine] | 100 | 100 | 100 | 100 | 100 | 19 | 96 | 97 | 99 | 100 | 100 | 8 | 100 | 46 | 99 | – | – | –
OC[C@@H](O)CNc1ncnc2c1ncn2[C@@H]1O[C@H](CO)[C@@H](O)[C@H]1O [Example 3] | 0 | 88 | 100 | 100 | 100 | – | 0 | 92 | 97 | 97 | 100 | 0 | – | -18 | – | 0 | 20 | -19
Nc1nc(NCC(O)CO)c2ncn([C@@H]3O[C@H](CO)[C@@H](O)[C@H]3O)c2n1 (stereo partly shown) [Example 8] | 0 | 88 | 99 | 99 | 99 | 75 | 56 | 98 | 98 | 99 | 100 | – | 99 | – | 99 | – | – | –
CC1(C)OCC(CNc2ncnc3c2ncn3[C@@H]2O[C@H](CO)[C@@H](O)[C@H]2O)O1 (stereo partly drawn) [Example 4, (R,S)-N^6-[2,3Dihydroxypropylisopropylidene]adenosine] | 0 | 0 | 0 | 66 | 99 | 24 | 6 | 27 | 23 | 96 | 93 | – | 99 | – | 99 | – | – | –
